Measurements: patent US7071206B2, “Agents for treating neurodegenerative disorders” (Medivation, Inc., priority 1995, dated 2006)

Columns and labels:
[1] = system: NMDA receptor; details: cited from earlier work
[2] = system: NMDA receptor; assay: Anti-NMDA activity: prevention of convulsions and death caused by NMDA injected into the lateral ventricle of the brain; assay type: in vivo; details: mice, i.p. 40 minutes before NMDA 0.1 μg into the lateral ventricle, probit analysis
Method: The experiment was conducted in white non-inbred male mice of 20–24 g of weight. A solution of the test agent in 0.2 ml of 5% aqueous dimethylsulfoxide was injected intraperitoneally 40 minutes before the injection of NMDA into the lateral vehicle of the brain. For the mice that had been prepared beforehand for the experiment a skin flap on the head of each mouse was removed under ether anestesia and a hole was bored in the skull by a fine drill. NMDA (0.1 μg) in a volume of 1.4 μl was injected with a microsyringe. The microsyringe needle was immersed to a depth of 2.5 mm. After the operation, the wound was treated with a 2% novocaine solution. […] The accuracy of NMDA injection was monitored by injection of methylene blue. Two to 4 hours after the operation, the mice were used for a pharmacological experiment.
The animals inoculated with a saline solution were used as control.
Each dose of the agent was tested in a croup of 6–8 animals. The ED50 value (the dose of the agent preventing the development of convulsions and the death of 50% of the animals) was determined by a probit-analysis method (Litchfild J. T., Wicoxon F. J.—Pharmacol. Exp. Therap., 1949, v. 96, p. 99–114).

Row | SMILES | ED50 (dose preventing the development of convulsions and the death of 50% of the animals) [2] | other results
1 | NC(CCCP(=O)(O)O)C(=O)O (stereo not drawn) [AP-5, 2-amino-5-phosphonovaleric acid] | 190 ± 20 mg/kg | side neurotoxic effect (disturbance of coordination of movement, sedative effect) ([1]; in the doses that produce the anti-NMDA effect): side neurotoxic effect; ED50, anti-NMDA effect ([1]; literature value): 190 mg/kg
2 | CN1CCc2[nH]c3ccccc3c2C1 [No. 1, 2-methyl-2,3,4,5-tetrahydro-1H-pyrido[4,3-b]indole] | 30 ± 4 mg/kg | –
3 | Cc1ccc2[nH]c3c(c2c1)CN(C)CC3 [No. 2, 2,8-dimethyl-2,3,4,5-tetrahydro-1H-pyrido[4,3-b]indole] | – | ED50 (dose preventing the development of convulsions and the death of 50% of the animals) ([2]; listed as 2): 16 ± 4 mg/kg
4 | Cc1ccc2[nH]c3c(c2c1)CN(C)CC3 [No. 3, 2,8-dimethyl-2,3,4,5-tetrahydro-1H-pyrido[4,3-b]indole] | – | ED50 (dose preventing the development of convulsions and the death of 50% of the animals) ([2]; listed as 3): ~40 mg/kg
5 | CN1CCc2[nH]c3ccc(Br)cc3c2C1 [No. 5, 2-methyl-8-bromo-2,3,4,5-tetrahydro-1H-pyrido[4,3-b]indole] | 29 ± 5 mg/kg | –
6 | CCN1CCc2[nH]c3ccccc3c2C1 [No. 6, 2-ethyl-2,3,4,5-tetrahydro-1H-pyrido[4,3-b]indole] | 45 ± 6 mg/kg | –
7 | c1ccc(CN2CCc3[nH]c4ccccc4c3C2)cc1 [No. 7, 2-benzyl-2,3,4,5-tetrahydro-1H-pyrido[4,3-b]indole] | 43 ± 5 mg/kg | –
8 | Cc1ccc2c(c1)c1c(n2Cc2ccccc2)CCN(C)C1 [No. 8, 2,8-dimethyl-5-benzyl-2,3,4,5-tetrahydro-1H-pyrido[4,3-b]indole] | 45 ± 5 mg/kg | –
9 | Cc1ccc(CCn2c3c(c4ccccc42)CN(C)CC3)cn1 [No. 9, 2-methyl-5-[2-(6-methyl-3-pyridyl)ethyl]-2,3,4,5-tetrahydro-1H-pyrido[4,3-b]indole] | 22 ± 4 mg/kg | –
10 | Cl.Nc1c2c(nc3ccccc13)CCCC2 [Tacrine, 9-amino-1,2,3,4-tetrahydroacridine hydrochloride, reference compound] | not active | –
